Measured values from patent publication US6855730B2, “3-methylidenyl-2-indolinone modulators of protein kinase” (Sugen, Inc., priority 1998, dated 2005).

Molecular target: T1, chimeric receptor having the extra-cellular domain of EGF-R and the intra-cellular domain of Her2 (Homo sapiens, UniProt P04626)
T1 construct: fused on or other part: the same chimera
Assay: EGF-induced Her2-driven BrdU incorporation
Assay type: cell-based
Conditions: read-out: BrdU HER 2 driven IC50
Protocol: The cellular/catalytic assays described herein are performed in an ELISA format. The general procedure is as follows: a compound is introduced to cells expressing the test kinase, either naturally or recombinantly, for a selected period of time after which, if the test kinase is a receptor, a ligand known to activate the receptor is added. The cells are lysed and the lysate is transferred to the wells of an ELISA plate previously coated with a specific antibody recognizing the substrate of the enzymatic phosphorylation reaction. Non-substrate components of the cell lysate are washed away and the amount of phosphorylation on the substrate is detected with an antibody specifically recognizing phosphotyrosine compared with control cells that were not contacted with a test compound. The cellular/biologic assays described herein measure the amount of DNA made in response to activation of a test kinase, which is a general measure of a proliferative response. The general procedure for this assay is as follows: a compound is introduced to cells expressing the test kinase, either naturally or recombinantly, for a selected period of time after which, if the test kinase is a receptor, a ligand known to activate the receptor is added. After incubation at least overnight, a DNA labeling reagent such as Bromodeoxyuridine (BrdU) or 3H-thymidine is added. The amount of labeled DNA is detected with either an anti-BrdU antibody or by measuring radioactivity and is compared to control cells not contacted with a test compound.
EGF-Induced Her2-Driven BrdU Incorporation
Protocol • (1) Cells-are seeded at 8000 cells/well in DMEM, 10% CS, 2mM Gln in a 96-well plate. Cells are incubated overnight at 37° C. in 5% CO2. • (2) After 24 hours, the cells are washed with PBS, and then are serum starved in serum free medium (0% CS DMEM with 0.1% BSA) for 24 hours. • (3) On day 3, ligand (EGF=2 nM, prepared in DMEM with 0.1% BSA) and test compounds are added to the cells simultaneously. The negative control wells receive serum free DMEM with 0.1% BSA only, the positive control cells receive the ligand (EGF) but no test compound. Test compounds are prepared in serum free DMEM with ligand in a 96 well plate, and serially diluted for 7 test concentrations. • (4) After 20 hours of ligand activation, diluted BrdU labeling reagent (1:100 in DMEM, 0.1% BSA) is added and the cells are incubated with BrdU (final concentration=10 μM) for 1.5 hours. • (5) After incubation with labeling reagent, the medium is removed by decanting and tapping the inverted plate on a paper towel. FixDenat solution is added (50 μl/well) and the plates are incubated at room temperature for 45 minutes on a plate shaker. • (6) The FixDenat solution is thoroughly removed by decanting and tapping the inverted plate on a paper towel. Milk is added (5% dehydrated milk in PBS, 200 μ/well) as a blocking solution and the plate is incubated for 30 minutes at room temperature on a plate shaker. • (7) The blocking solution is removed by decanting and the wells are washed once with PBS. Anti-BrdU-POD solution (1:100 dilution in PBS, 1% BSA) is added (100 μl/well) and the plate is incubated for 90 minutes at room temperature on a plate shaker. • (8) The antibody conjugate is thoroughly removed by decanting and rinsing the wells 5 times with PBS, and the plate is dried by inverting and tapping on a paper towel. • (9) TMB substrate solution is added (100 μl/well) and incubated for 20 minutes at room temperature on a plate shaker until color development is sufficient for photometric detection. • (10) The absorbance of the samples are measured at 410 nm (in “dual wavelength” mode with a filter reading at 490 nm, as a reference wavelength) on a Dynatech ELISA plate reader.

T1 sequence (P04626 676-1255 limits assumed, change not shown): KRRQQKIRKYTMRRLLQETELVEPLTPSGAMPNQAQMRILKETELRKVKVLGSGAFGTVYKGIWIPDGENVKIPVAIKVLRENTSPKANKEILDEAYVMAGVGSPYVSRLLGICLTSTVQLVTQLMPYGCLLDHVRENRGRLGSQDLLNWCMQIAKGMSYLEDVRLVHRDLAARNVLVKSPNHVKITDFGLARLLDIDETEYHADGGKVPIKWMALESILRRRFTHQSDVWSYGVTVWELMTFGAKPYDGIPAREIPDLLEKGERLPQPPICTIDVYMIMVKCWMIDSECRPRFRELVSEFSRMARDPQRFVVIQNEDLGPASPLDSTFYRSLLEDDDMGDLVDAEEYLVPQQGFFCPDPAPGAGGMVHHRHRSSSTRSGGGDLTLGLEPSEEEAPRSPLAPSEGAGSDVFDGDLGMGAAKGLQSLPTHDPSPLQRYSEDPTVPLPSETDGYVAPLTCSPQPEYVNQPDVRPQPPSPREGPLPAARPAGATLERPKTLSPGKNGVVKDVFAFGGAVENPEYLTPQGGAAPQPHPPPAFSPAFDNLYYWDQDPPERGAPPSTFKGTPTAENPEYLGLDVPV

COc1c(C(C)C)cc(/C=C2/C(=O)Nc3ccccc32)cc1C(C)C [Example 1, 3-(3,5-Diisopropyl-4-methoxybenzylidene)-1,3-dihydroindol-2-one]
IC50: 8.7 µM
